The source of these data is ChEMBL document CHEMBL1158105, “Triterpene saponins from clematis mandshurica” (J Nat Prod, 2006).

As a reminder, the IC50 is the concentration needed to halve the response being measured.

This assay deals with T1, Prostaglandin G/H synthase 2 (Mus musculus, UniProt Q05769).
T1 sequence (Q05769 whole entry): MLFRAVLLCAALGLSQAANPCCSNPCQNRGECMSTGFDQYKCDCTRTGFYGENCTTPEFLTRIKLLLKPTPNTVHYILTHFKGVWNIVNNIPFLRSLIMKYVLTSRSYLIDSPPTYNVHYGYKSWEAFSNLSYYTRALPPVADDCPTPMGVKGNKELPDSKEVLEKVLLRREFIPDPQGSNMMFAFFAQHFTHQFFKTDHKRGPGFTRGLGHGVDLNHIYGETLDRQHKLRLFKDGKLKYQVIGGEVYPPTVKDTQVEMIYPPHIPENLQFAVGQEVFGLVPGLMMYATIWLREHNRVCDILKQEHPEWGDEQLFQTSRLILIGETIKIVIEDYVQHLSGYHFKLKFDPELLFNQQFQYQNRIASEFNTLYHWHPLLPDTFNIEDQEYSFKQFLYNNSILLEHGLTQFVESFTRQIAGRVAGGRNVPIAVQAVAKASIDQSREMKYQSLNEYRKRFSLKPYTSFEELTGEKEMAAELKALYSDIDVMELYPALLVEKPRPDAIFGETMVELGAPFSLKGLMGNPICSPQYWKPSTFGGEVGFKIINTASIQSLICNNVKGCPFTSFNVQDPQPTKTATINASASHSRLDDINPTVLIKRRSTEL
Briefly: Inhibition of LPS-induced COX2 activity in C57BL/6J mouse peritoneal macrophages by RIA.

Regarding `COc1cc(/C=C/C(=O)O[C@H]2[C@H](O[C@@H]3[C@@H](O)[C@H](O[C@@H]4CO[C@@H](O[C@@H]5[C@@H](O)[C@H](C)O[C@@H](O[C@H]6[C@H](O[C@H]7CC[C@]8(C)[C@H]9CC=C%10[C@@H]%11CC(C)(C)CC[C@]%11(C(=O)O[C@@H]%11O[C@H](CO[C@@H]%12O[C@H](CO)[C@@H](O[C@@H]%13O[C@@H](C)[C@H](O)[C@@H](O)[C@H]%13O)[C@H](O)[C@H]%12O)[C@@H](O)[C@H](O)[C@H]%11O)CC[C@@]%10(C)[C@]9(C)CC[C@H]8C7(C)C)OC[C@H](O)[C@@H]6O)[C@@H]5O)[C@H](O)[C@@H]4O)O[C@H](CO)[C@H]3O)O[C@H](CO[C@@H]3O[C@@H](C)[C@H](O)[C@@H](O)[C@H]3O)[C@@H](O)[C@@H]2O)ccc1O` [CLEMATOMANDSHURICA SAPONIN B], inhibition was half-maximal at 2580 nM (IC50).
Under `COc1ccc(/C=C/C(=O)O[C@@H]2[C@@H](O)[C@H](O[C@@H]3[C@@H](O)[C@H](O[C@@H]4CO[C@@H](O[C@@H]5[C@@H](O)[C@H](C)O[C@@H](O[C@H]6[C@H](O[C@H]7CC[C@]8(C)[C@H]9CC=C%10[C@@H]%11CC(C)(C)CC[C@]%11(C(=O)O[C@@H]%11O[C@H](CO[C@@H]%12O[C@H](CO)[C@@H](O[C@@H]%13O[C@@H](C)[C@H](O)[C@@H](O)[C@H]%13O)[C@H](O)[C@H]%12O)[C@@H](O)[C@H](O)[C@H]%11O)CC[C@@]%10(C)[C@]9(C)CC[C@H]8C7(C)C)OC[C@H](O)[C@@H]6O)[C@@H]5O)[C@H](O)[C@@H]4O)O[C@H](CO)[C@H]3O)O[C@H](CO[C@@H]3O[C@@H](C)[C@H](O)[C@@H](O)[C@H]3O)[C@H]2O)cc1O` [CLEMATOMANDSHURICA SAPONIN A] stands 2660 nM.
